Test [1] relates to velvetleaf (Abutilon theophrasti). Kind of test: Test Example 5: herbicidal effect of Halosulfuron-methyl spray solution with added polyoxyethylene alkyl ethers on velvetleaf. The test is classed as in vivo. The following applies: scale 0 to 100; spray solution of 75% water dispersible granules of Halosulfuron-methyl alone, 0.1 g/a., five-leaf stage, 2 l/a., 27 days after spraying. On the procedure: (§1) A biological test was conducted using spray solutions prepared by adding polyoxyethylene alkyl ethers having different HLB values to a herbicide spray solution.
Biological tests were conducted on velvetleaf (Abutilon theophrasti) using spray solutions prepared by adding polyoxyethylene alkyl ethers having different HLB values to a spray solution of 75% water dispersible granules of Halosulfuron-methyl. To confirm a difference in effect between the polyoxyethylene alkyl ethers, the tests were carried out using a lower concentration of Halosulfuron-methyl than usual. A plastic pot having a diameter of 12 cm was filled with soil, and velvetleaf seeds were sowed in the soil. The solutions were sprayed on velvetleaf of five-leaf stage in an amount of 0.1 g per are (g/a.), calculated as pesticidally active ingredient Halosulfuron-methyl. The amount of the solution sprayed was 2 liters per are (l/a.)and 1,000 ppm of a the polyethylene alkyl ethers were added to the solution. Herbicidal effects were observed and evaluated 27 days after spraying.

The subject of test [2] is crabgrass(Digitaria ciliaris). The test can be described thus: Test Example 6: herbicidal effect of Quizalofop-p-ethyl spray solution with added polyoxyethylene alkyl ethers on crabgrass. Particulars: scale 0 to 100; spray solution of 40% suspension concentrates of Quizalofop-p-ethyl alone, 125 mg/a., 3 weeks after sowing, 2.5 l/a., 21 days after spraying. Format: in vivo. On the procedure:
as §1
Biological tests were conducted on crabgrass(Digitaria ciliaris) using spray solutions prepared by adding polyoxyethylene alkyl ethers having different HLB values to a spray solution of 40% suspension concentrates of Quizalofop-p-ethyl. A plastic pot having a diameter of 12 cm was filled with soil, and crabgrass seeds were sowed in the soil. The solutions were sprayed on in an amount of 125 mg per are (mg/a.), calculated as pesticidally active ingredient Quizalofop-p-ethyl, 3 weeks after the seeds were sowed. The amount of the solution sprayed was 2.5 liters per are (1/a.) and 125 ppm of the polyoxyethylene alkyl ethers were added to the solution. Herbicidal effects on crabgrass were observed and evaluated 21 days after spraying.

SMILES strings stand for the structures.

As for `COC(=O)c1c(Cl)nn(C)c1S(=O)(=O)NC(=O)Nc1nc(OC)cc(OC)n1` [Halosulfuron-methyl], the “Observation evaluation, herbicidal effect of Halosulfuron-methyl on velvetleaf, polyoxyethylene alkyl ether not added” value in test [1] amounted to 40.
Turning to `CCOC(=O)[C@@H](C)Oc1ccc(Oc2cnc3cc(Cl)ccc3n2)cc1` [Quizalofop-p-ethyl, ethyl=(R)-2-[4-(6-chloroquinoxalin-2-yloxy)phenoxy]propionate], in test [2], the “Observation evaluation, herbicidal effect of Quizalofop-p-ethyl on crabgrass, polyoxyethylene alkyl ether not added” value came out at 25.

The values are drawn from patent US6664213B1, “Liquid pesticide composition” (Nissan Chemical Industries, Ltd., priority 1999, dated 2003).
